Source: ChEMBL document CHEMBL1122283, “Angiotensin converting enzyme inhibitors: 1-glutarylindoline-2-carboxylic acids derivatives” (J Med Chem, 1983)

Assays:
[1] = target: T1, Angiotensin-converting enzyme (Oryctolagus cuniculus, UniProt P12822); experiment: In vitro inhibition of angiotensin I converting enzyme (ACE)
T1 sequence (P12822 whole entry): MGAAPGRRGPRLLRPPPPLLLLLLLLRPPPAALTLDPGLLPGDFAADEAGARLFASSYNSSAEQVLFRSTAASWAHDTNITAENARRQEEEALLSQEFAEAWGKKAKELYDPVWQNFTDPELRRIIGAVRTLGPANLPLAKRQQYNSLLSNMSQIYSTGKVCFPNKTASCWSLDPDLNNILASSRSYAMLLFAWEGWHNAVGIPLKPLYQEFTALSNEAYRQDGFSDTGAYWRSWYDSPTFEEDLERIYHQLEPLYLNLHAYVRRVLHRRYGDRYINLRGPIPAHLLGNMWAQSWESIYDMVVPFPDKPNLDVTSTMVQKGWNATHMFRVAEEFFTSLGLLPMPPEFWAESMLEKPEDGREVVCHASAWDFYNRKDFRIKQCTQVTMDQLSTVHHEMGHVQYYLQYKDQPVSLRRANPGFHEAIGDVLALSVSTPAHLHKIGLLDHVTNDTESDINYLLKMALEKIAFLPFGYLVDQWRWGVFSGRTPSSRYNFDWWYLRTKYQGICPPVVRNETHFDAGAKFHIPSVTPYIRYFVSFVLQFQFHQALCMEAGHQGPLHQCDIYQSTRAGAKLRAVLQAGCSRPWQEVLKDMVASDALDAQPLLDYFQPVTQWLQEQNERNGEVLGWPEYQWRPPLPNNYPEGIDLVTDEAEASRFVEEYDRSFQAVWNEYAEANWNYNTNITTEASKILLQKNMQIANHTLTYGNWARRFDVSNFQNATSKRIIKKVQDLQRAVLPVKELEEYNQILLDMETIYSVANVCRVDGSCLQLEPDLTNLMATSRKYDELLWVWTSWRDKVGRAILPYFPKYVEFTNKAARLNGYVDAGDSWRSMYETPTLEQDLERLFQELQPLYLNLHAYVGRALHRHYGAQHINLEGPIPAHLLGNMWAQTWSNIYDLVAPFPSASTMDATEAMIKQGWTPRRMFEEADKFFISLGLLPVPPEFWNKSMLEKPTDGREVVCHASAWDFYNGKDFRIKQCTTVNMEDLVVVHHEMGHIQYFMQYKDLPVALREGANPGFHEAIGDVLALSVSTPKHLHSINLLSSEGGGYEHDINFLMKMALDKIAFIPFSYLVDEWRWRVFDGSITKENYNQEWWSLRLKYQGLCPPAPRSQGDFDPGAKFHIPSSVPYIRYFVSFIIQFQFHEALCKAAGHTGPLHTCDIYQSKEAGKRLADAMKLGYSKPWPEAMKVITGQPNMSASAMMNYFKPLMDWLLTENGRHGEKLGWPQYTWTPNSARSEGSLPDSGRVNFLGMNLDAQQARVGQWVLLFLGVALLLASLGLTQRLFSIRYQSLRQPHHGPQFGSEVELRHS

Rattus norvegicus [2] = experiment: In vivo percent inhibition of angiotensin I pressor response 15 min after 1 mg/kg, iv administration in spontaneously hypertensive rat (SHR); assay type: functional; conditions: for inhibition in vivo at 1 mg/kg: Rattus norvegicus, iv, 0.25 h
Rattus norvegicus [3] = experiment: Maximal change in blood pressure recorded during the 4-day test period in spontaneously hypertensive rat (SHR)at 50 mg/kg, p.o. dose; assay type: functional; conditions: route oral
Rattus norvegicus [4] = experiment: In vivo percent inhibition of angiotensin I pressor response 15 min after 10mg/kg, iv administration in spontaneously hypertensive rat (SHR); assay type: functional; conditions: 0.25 h
Rattus norvegicus [5] = experiment: Maximal change in blood pressure recorded during the 4-day test period in spontaneously hypertensive rat (SHR)at 30 mg/kg, po dose; assay type: functional
Rattus norvegicus [6] = experiment: In vivo percent inhibition of angiotensin I pressor response 15 min after 0.3 mg/kg, iv administration in spontaneously hypertensive rat (SHR); assay type: functional; conditions: 0.25 h
Rattus norvegicus [7] = experiment: Maximal change in blood pressure recorded during the 4-day test period in spontaneously hypertensive rat (SHR)at 10mg/kg, po dose; assay type: functional
Rattus norvegicus [8] = experiment: In vivo percent inhibition of angiotensin I pressor response 15 min after 0.10 mg/kg, iv administration in spontaneously hypertensive rat (SHR); assay type: functional; conditions: 0.25 h
Rattus norvegicus [9] = experiment: In vivo percent inhibition of angiotensin I pressor response 15 min after 2 mg/kg, iv administration in spontaneously hypertensive rat (SHR); assay type: functional; conditions: 0.25 h
Rattus norvegicus [10] = experiment: In vivo percent inhibition of angiotensin I pressor response 15 min after 0.4 mg/kg, iv administration in spontaneously hypertensive rat (SHR); assay type: functional; conditions: 0.25 h
[11] = target: T1, Angiotensin-converting enzyme; experiment: In vitro inhibition of angiotensin converting enzyme
Rattus norvegicus [12] = experiment: In vivo percent inhibition of angiotensin I pressor response 15 min after 10 mg/kg, iv administration in spontaneously hypertensive rat (SHR); assay type: functional; conditions: 0.25 h
Rattus norvegicus [13] = experiment: Maximal change in blood pressure recorded during the 4-day test period in spontaneously hypertensive rat (SHR) at 30 mg/kg, po dose; assay type: functional

SMILES: CC(CCC(=O)O)C(=O)N1c2ccccc2CC1C(=O)O (stereo not given)
- IC50 [1]: 64 nM
- inhibition in vivo at 1 mg/kg (Rattus norvegicus [2]): 84%
- Max delta BP (Rattus norvegicus [3]): -61 mmHg

SMILES: CCOC(=O)C1Cc2ccccc2N1C(=O)CCC(C)C(=O)O (stereo not given)
- IC50 [1]: 170000 nM
- inhibition in vivo at 10 mg/kg (Rattus norvegicus [4]): 11%

SMILES: C[C@H](CCC(=O)O)C(=O)N1c2ccccc2CC1C(=O)O (stereo not given in full)
- IC50 [1]: 44 nM
- inhibition in vivo at 1 mg/kg (Rattus norvegicus [2]): 94%
- Max delta BP (Rattus norvegicus [5]): -35 mmHg

SMILES: CCOC(=O)C1Cc2ccccc2N1C(=O)[C@H](C)C[C@@H](C)C(=O)O (stereo not given in full)
- IC50 [1]: 28000 nM
- inhibition in vivo at 0.3 mg/kg (Rattus norvegicus [6]): 16%

SMILES: COc1ccc2c(c1)CC(C(=O)O)N2C(=O)[C@H](C)C[C@@H](C)C(=O)O (stereo not given in full)
- IC50 [1]: 110 nM
- inhibition in vivo at 1 mg/kg (Rattus norvegicus [2]): 56%

SMILES: CC(C)(CC(=O)O)CC(=O)N1c2ccccc2CC1C(=O)O (stereo not given)
- IC50 [1]: 290000 nM

SMILES: C[C@H](CS)C(=O)N1CCC[C@H]1C(=O)O [CAPTOPRIL]
- inhibition in vivo at 1 mg/kg (Rattus norvegicus [2]): 90%
- Max delta BP (Rattus norvegicus [7]): -45 mmHg
- Max delta BP (Rattus norvegicus [5]): -55 mmHg

SMILES: CC(CCC(=O)N1c2ccccc2CC1C(=O)O)C(=O)O (stereo not given)
- IC50 [1]: 920 nM
- inhibition in vivo at 10 mg/kg (Rattus norvegicus [4]): 41%

SMILES: CC(C)C(CCC(=O)O)C(=O)N1c2ccccc2CC1C(=O)O (stereo not given)
- IC50 [1]: 50 nM
- inhibition in vivo at 1 mg/kg (Rattus norvegicus [2]): 77%

SMILES: CCOC(=O)CC[C@@H](C)C(=O)N1c2ccccc2CC1C(=O)O (stereo not given in full)
- IC50 [1]: 11000 nM
- inhibition in vivo at 0.1 mg/kg (Rattus norvegicus [8]): 27%
- Max delta BP (Rattus norvegicus [3]): -66 mmHg

SMILES: CCOC(=O)[C@@H](CCC(=O)N1c2ccccc2CC1C(=O)O)CCc1ccccc1 (stereo not given in full)
- IC50 [1]: 4300 nM
- inhibition in vivo at 1 mg/kg (Rattus norvegicus [2]): 17%

SMILES: O=C(O)CCCC(=O)N1CCC[C@H]1C(=O)O
- IC50 [1]: 70000 nM

SMILES: CCOC(=O)C1Cc2ccccc2N1C(=O)C(C)CC(C)C(=O)O (stereo not given)
- IC50 [1]: 8800 nM
- inhibition in vivo at 10 mg/kg (Rattus norvegicus [4]): 84%
- Max delta BP (Rattus norvegicus [3]): -33 mmHg

SMILES: CC(CC(C)C(=O)N1c2ccccc2CC1C(=O)O)C(=O)O (stereo in doubt; 6n)
- IC50 [1]: 54 nM
- Inhibition (Rattus norvegicus [2]; 1 mg/kg): 84%

SMILES: CCOC(=O)[C@H](C)C[C@@H](C)C(=O)N1c2ccccc2CC1C(=O)O (stereo not given in full)
- IC50 [1]: 5500 nM
- inhibition in vivo at 0.1 mg/kg (Rattus norvegicus [8]): 52%
- Max delta BP (Rattus norvegicus [3]): -75 mmHg

SMILES: C[C@H](C[C@@H](C)C(=O)N1c2ccccc2CC1C(=O)O)C(=O)O (stereo not given in full)
- IC50 [1]: 28 nM
- inhibition in vivo at 0.1 mg/kg (Rattus norvegicus [8]): 45%
- Max delta BP (Rattus norvegicus [3]): -39 mmHg

SMILES: CC(CCC(N)=O)C(=O)N1c2ccccc2CC1C(=O)O (stereo not given)
- IC50 [1]: 16000 nM
- inhibition in vivo at 10 mg/kg (Rattus norvegicus [4]): 71%

SMILES: O=C(O)C(CCC(=O)N1c2ccccc2CC1C(=O)O)CCc1ccccc1 (stereo not given)
- IC50 [1]: 39 nM
- inhibition in vivo at 10 mg/kg (Rattus norvegicus [4]): 75%
- Max delta BP (Rattus norvegicus [3]): -46 mmHg

SMILES: C[C@H](C[C@@H](C)C(=O)N1CCC[C@H]1C(=O)O)C(=O)O
- IC50 [1]: 4800 nM

SMILES: C[C@H](C[C@@H](CCc1ccccc1)C(=O)O)C(=O)N1c2ccccc2CC1C(=O)O (stereo not given in full)
- IC50 [1]: 4.8 nM
- inhibition in vivo at 0.1 mg/kg (Rattus norvegicus [8]): 60%

SMILES: CC(CC(=O)O)C(=O)N1c2ccccc2C[C@H]1C(=O)O (stereo not given in full)
- IC50 [1]: 300 nM
- inhibition in vivo at 1 mg/kg (Rattus norvegicus [2]): 27%

SMILES: CC(CC(C)C(=O)N1c2ccccc2CC1C(=O)O)C(=O)O (stereo in doubt; 6m)
- IC50 [1]: 190 nM
- inhibition in vivo at 1 mg/kg (Rattus norvegicus [2]): 76%

SMILES: CC(CC(=O)O)CC(=O)N1c2ccccc2CC1C(=O)O (stereo not given)
- IC50 [1]: 37000 nM
- inhibition in vivo at 10 mg/kg (Rattus norvegicus [4]): 20%

SMILES: COC(=O)CCC(C)C(=O)N1c2ccccc2CC1C(=O)O (stereo not given)
- IC50 [1]: 6900 nM
- inhibition in vivo at 0.1 mg/kg (Rattus norvegicus [8]): 45%
- Max delta BP (Rattus norvegicus [3]): -61 mmHg

SMILES: C[C@H](C[C@@H](C)C(=O)N1c2ccc(Cl)cc2CC1C(=O)O)C(=O)O (stereo not given in full)
- IC50 [1]: 440 nM
- inhibition in vivo at 2 mg/kg (Rattus norvegicus [9]): 32%

SMILES: CCOC(=O)[C@H](CCc1ccccc1)C[C@@H](C)C(=O)N1c2ccccc2CC1C(=O)O (stereo not given in full)
- IC50 [1]: 11000 nM
- inhibition in vivo at 0.4 mg/kg (Rattus norvegicus [10]): 89%
- Max delta BP (Rattus norvegicus [5]): -70 mmHg

SMILES: O=C(O)C1Cc2ccccc2N1C(=O)CC[C@@H](CCc1ccccc1)C(=O)O (stereo not given in full)
- IC50 [1]: 33 nM

SMILES: Cc1ccc2c(c1)CC(C(=O)O)N2C(=O)[C@H](C)C[C@@H](C)C(=O)O (stereo not given in full)
- IC50 [11]: 490 nM
- inhibition in vivo at 2 mg/kg (Rattus norvegicus [9]): 40%

SMILES: O=C(O)CCCC(=O)N1c2ccccc2CC1C(=O)O (stereo not given)
- IC50 [1]: 260 nM
- inhibition in vivo at 10 mg/kg (Rattus norvegicus [12]): 78%
- Max delta BP (Rattus norvegicus [13]): -37 mmHg
